# Test results: patent US20240132485A1, “HETEROCYCLIC CULLIN RING UBIQUITIN LIGASE COMPOUNDS AND USES THEREOF” (CEMM - FORSCHUNGSZENTRUM FÜR MOLEKULARE MEDIZIN GMBH, priority 2020, published 2024)
# Tests used:
# [1] = test system: KBM7 cells harboring a hypomorphic UBE2M mutation; experiment: KBM7 CTG EC50 assay (UBE2M knock-out); format: cell-based; details: Homo sapiens, KBM-7; 72 h incubation, CellTiter-Glo; read-out: KBM7 CTG EC50 (UBE2M knock-out) Activity Class
# Source text: (§1) This is a cell viability assay to measure the desired therapeutic effect, i.e. killing of cancer cells. The UBE2M mutant cell line has impaired activity of the Cullin-RING ligase system due to a hypomorphic mutation in UBE2M, which is required for activation of these E3 ligases. By comparison with WT cells, it is possible to estimate the contribution of Cyclin K degradation (which is reduced in UBE2M mut cells) compared to kinase inhibition of CDK12 (which is unaffected in UBE2M mut cells). Since the UBE2M mutation only reduces CRL function without fully abrogating it, this assay may slightly underestimate the effect of degradation because, at high compound concentrations, degradation may still be observed.
# (§2) KBM7 cells (wild-type or harboring α hypomorphic UBE2M mutation (Mayor-Ruiz et al., 2019)) were seeded in a white opaque 384-well plate at a density of 1000 cells per well in duplicate, in full medium (IMDM+10% FBS+1% penicillin-streptomycin). Cells were treated with compounds in a 10-point titration with a dilution factor of 1:4 (range: 0 to 20 μM). After 72 h of incubation, the cell viability was determined using the CellTiter-Glo® 2.0 reactant (Promega), pre-diluted 1:4 in mQ water. The luminescence signal was measured using the multimode plate reader EnVision 2105 (Perkin Elmer).
# CCNK = experiment: NanoLuc-CCNK degradation assay (HEK293T_Nluc_CCNK-tagged cells); format: cell-based; details: 4 h incubation, HEK293T_Nluc_CCNK-tagged cells; for DC50: read-out: NanoLuc-CCNK degradation DC50 Activity Class
# Description: The assay helps to elucidate the mechanistic explanation of the cell killing effect of the compounds of the present invention. Cyclin K is fused to a nanoluciferase, light emission is measured as a proxy of Cyclin K abundance. Potency of Cyclin K degradation and cytotoxicity of KBM7 correlate extremely well, further supporting Cyclin K degradation being the main driver of the cell killing, as opposed to inhibition of CDK12 catalytic activity.
# HEK293T_Nluc_CCNK-tagged cells were engineered by integrating a nanoluciferase tag at the N-terminus of the endogenous locus of CCNK using CRISPR-Cas9 technology. Briefly, 5.5 million HEK293T cells were co-transfected by PEI with a 1:1 ratio of cutting vector (sgRNA: […]) and repair template (4 μg total plasmid) as previously described (Brand and Winter, 2019). The repair sequence comprises a cassette of puromycinR-P2A-HA-Nluc-(G4S)3 (P2A: self-cleaving peptide 2A, HA: HA-tag, (G4S)3: flexible linker), surrounded by 20-nucleotide microhomologies matching the genomic locus. After 3 days of incubation, the recombinant population was selected by puromycin treatment (2 μg/ml, 5-day treatment). A monoclonal population was obtained by limiting dilution and cassette integration validated by Sanger sequencing.
# HEK293T_Nluc_CCNK-tagged cells were seeded in a white opaque 384-well plate at a density of 8000 cells per well in duplicate, in full medium (Opti-MEM I+4% FBS+1% PS). Cells were treated with compounds in a 10-point titration (range: 0 to 10 μM, 1:4 dilution). After 4 h of incubation, Nano-Glo substrate (Promega), pre-diluted in serum-free medium (Opti-MEM I), was added to the cells (1:500 final dilution). The luminescence signal was directly measured using the multimode plate reader EnVision 2105 (Perkin Elmer).
# KBM7 cells (wild-type) = experiment: KBM7 CTG EC50 assay (UBE2M wild-type); format: cell-based, human; details: for EC50: Homo sapiens, KBM-7, 72 h incubation, CellTiter-Glo, read-out: KBM7 CTG EC50 (UBE2M wild-type) Activity Class; for Ratio UBE2M WT to KO: ratio of anti-proliferative activity in KBM7 wild-type versus UBE2M knock-out cells (fold)
# Source text: as §1, §2
# [2] = molecular target: T1, DDB1-CDK12/Cyclin K ternary complex (Homo sapiens, UniProt Q16531+Q9NYV4); experiment: NanoBRET fold-change assay (HaloTag_CDK12 / NanoLuc_DDB1 in HEK293T); format: cell-based; details: 10 μM compound, 10 minutes
# T1 construct: expressed in transfected cells; host or cells: HEK293T wildtype cells, transient PEI transfection
# Description: This assay measures the interaction/recruitment of CDK12/Cyclin K to DDB1, mechanistically validating the molecular glue pharmacology.
# HEK293T wildtype cells are seeded 800 k cells/well (DMEM+10% FBS+1% PS) in a 6-well plate and allowed to attach for ˜7 hours followed by a transient transfection of 1.5 μg HaloTag_CDK12 Plasmid [Table 1] and 0.15 μg NanoLuc_DDB1 plasmid [Table 1] per well using PEI. Cells are incubated at 37° C., 5% CO2, harvested after 24 hours and resuspended in assay media (Opti-MEM Reduced serum media, no phenol red, 4% FBS, 1% PS). Cells are adjusted to 2.3×10^5 cells/ml and treated with HaloTag 618 Ligand at 100 nM or DMSO. 8000 cells are seeded per well in triplicates per compound in a white-walled 384-well plate, one negative control treated with DMSO instead of HaloTag 618 Ligand is seeded in triplicates and the 384-well plate is incubated at 37° C., 5% CO2 overnight. Compound stock solutions are prepared in Opti-MEM−/− (Opti-MEM I Reduced serum media, no phenol red) at 8× and used to treat the cells at a final concentration of 1× at 10 μM. Cells and compounds are incubated for 10 minutes at room temperature followed by addition of NanoBRET Nano-Glo substrate following manufacturer's protocols. The plate is shaken for 30 sec followed by immediate measurement of donor emission (NanoBRET Blue at 460 nm) and acceptor emission (BRET Deep Red at 647 nm) for 0.5 s.
# T1 sequence (Q9NYV4 whole entry): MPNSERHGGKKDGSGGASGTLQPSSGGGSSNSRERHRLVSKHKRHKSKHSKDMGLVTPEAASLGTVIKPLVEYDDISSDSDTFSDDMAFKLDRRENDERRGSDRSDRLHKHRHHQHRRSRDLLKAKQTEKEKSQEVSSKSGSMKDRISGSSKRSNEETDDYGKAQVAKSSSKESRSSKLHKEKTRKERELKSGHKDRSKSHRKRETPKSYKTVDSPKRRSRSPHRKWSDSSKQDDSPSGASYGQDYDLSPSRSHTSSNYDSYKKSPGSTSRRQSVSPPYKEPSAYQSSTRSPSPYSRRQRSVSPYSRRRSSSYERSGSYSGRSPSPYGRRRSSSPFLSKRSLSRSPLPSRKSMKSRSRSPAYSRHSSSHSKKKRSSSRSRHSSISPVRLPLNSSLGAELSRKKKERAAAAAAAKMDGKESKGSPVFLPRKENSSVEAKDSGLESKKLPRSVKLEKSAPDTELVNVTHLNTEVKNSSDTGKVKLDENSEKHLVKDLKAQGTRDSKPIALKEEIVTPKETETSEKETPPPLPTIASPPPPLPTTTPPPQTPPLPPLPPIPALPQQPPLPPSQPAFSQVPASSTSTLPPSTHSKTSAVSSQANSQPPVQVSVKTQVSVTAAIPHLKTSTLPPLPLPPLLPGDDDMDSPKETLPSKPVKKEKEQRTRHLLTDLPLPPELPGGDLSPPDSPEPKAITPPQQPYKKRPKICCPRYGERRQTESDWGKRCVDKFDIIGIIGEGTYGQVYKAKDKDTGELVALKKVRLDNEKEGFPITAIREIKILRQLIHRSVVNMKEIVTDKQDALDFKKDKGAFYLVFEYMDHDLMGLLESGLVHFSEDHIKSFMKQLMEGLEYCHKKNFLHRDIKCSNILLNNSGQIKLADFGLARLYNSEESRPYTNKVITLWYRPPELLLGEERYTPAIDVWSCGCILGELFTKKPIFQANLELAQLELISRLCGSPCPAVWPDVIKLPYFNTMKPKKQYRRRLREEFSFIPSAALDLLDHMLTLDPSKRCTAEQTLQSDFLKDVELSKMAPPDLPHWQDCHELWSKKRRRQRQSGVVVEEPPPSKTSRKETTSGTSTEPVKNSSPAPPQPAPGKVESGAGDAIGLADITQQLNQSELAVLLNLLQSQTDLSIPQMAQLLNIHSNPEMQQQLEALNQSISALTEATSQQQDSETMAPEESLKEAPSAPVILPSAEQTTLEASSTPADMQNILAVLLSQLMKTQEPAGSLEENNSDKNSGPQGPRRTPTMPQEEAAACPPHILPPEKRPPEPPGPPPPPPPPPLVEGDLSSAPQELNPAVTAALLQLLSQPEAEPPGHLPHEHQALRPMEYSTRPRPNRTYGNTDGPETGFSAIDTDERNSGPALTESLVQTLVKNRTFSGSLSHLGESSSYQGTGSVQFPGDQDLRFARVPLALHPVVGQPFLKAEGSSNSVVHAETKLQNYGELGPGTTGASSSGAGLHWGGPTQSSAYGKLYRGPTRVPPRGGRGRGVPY
# T1 sequence (Q16531 whole entry): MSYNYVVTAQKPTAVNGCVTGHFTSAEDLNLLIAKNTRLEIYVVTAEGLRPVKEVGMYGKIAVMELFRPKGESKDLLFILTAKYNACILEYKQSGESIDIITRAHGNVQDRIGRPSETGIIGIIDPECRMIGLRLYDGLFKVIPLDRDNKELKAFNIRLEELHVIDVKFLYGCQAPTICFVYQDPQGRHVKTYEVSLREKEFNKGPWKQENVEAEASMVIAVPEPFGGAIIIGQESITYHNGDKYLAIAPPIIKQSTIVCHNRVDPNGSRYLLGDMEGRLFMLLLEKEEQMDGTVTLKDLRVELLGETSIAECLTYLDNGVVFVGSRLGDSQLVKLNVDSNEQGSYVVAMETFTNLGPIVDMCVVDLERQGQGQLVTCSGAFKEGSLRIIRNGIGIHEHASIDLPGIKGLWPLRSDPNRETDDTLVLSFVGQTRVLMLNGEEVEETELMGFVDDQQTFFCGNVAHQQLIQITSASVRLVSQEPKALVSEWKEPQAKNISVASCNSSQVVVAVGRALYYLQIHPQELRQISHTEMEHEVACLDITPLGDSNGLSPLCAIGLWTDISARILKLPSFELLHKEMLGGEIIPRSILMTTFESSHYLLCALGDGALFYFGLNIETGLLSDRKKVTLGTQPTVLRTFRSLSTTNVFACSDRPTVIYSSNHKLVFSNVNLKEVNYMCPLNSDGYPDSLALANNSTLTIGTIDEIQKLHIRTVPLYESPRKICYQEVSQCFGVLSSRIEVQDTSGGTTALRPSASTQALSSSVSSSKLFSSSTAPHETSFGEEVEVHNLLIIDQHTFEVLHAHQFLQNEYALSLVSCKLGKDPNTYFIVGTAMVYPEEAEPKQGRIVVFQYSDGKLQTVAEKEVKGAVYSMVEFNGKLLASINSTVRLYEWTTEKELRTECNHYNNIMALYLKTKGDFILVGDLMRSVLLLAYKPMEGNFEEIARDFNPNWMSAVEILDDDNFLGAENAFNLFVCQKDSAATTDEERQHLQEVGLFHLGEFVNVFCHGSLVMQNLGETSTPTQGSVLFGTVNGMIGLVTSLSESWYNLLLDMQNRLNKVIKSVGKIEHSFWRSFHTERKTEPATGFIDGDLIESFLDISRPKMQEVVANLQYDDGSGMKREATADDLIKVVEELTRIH
# T1 sequence (O75909 whole entry partner): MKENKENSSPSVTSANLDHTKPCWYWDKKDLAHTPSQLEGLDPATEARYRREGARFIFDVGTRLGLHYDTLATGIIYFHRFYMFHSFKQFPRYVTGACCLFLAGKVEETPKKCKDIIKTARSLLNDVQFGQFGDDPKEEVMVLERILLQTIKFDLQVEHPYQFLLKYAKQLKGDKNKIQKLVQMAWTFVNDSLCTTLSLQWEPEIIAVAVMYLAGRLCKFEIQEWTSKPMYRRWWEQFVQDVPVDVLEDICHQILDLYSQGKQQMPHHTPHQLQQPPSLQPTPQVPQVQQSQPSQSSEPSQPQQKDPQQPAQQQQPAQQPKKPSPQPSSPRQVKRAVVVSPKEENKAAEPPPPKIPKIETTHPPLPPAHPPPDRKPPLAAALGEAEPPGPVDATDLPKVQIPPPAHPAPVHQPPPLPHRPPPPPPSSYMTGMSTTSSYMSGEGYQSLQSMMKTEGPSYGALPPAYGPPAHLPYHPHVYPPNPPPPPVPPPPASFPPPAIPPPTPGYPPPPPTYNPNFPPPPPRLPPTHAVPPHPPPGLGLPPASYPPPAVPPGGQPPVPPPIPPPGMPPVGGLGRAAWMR
SMILES,EC50 [1],NanoLuc-CCNK degradation DC50 Activity Class (CCNK),EC50 (KBM7 cells (wild-type)),Ratio UBE2M WT to KO (KBM7 cells (wild-type)),NanoBRET fold-change Activity Class [2],DC50 (CCNK)
"O=C(CCn1cnc2ccc(Br)cc2c1=O)Nc1ncc(C(F)(F)F)s1 [Example 3-65, 3-(6-bromo-4-oxoquinazolin-3(4H)-yl)-N-(5-(trifluoromethyl)thiazol-2-yl)propanamide]",> 10 µM,B (0.50 μM≤DC50<0.10 μM),0.5 to 1 µM,>13,B (3-4 fold increase),
"O=C(Cc1cn2cc(F)ccc2n1)Nc1cc(Cl)[nH]n1 [Example 3-60, N-(5-chloro-1H-pyrazol-3-yl)-2-(6-fluoroimidazo[1,2-a]pyridin-2-yl)acetamide]",> 10 µM,,1 to 10 µM,>9,C (2-3 fold increase),> 10 µM
"O=C(Nc1ncc(C(F)(F)F)s1)C1CC(=O)N(c2ccc(F)c(F)c2)C1 (stereo not shown) [Example 3-23, 1-(3,4-difluorophenyl)-5-oxo-N-(5-(trifluoromethyl)thiazol-2-yl)pyrrolidine-3-carboxamide]",> 10 µM,,≤ 0.25 µM,>10,B (3-4 fold increase),> 10 µM
"O=C(Nc1ncc(C(F)(F)F)s1)C1CC(=O)N(c2ccc3c(c2)OCO3)C1 (stereo not shown) [Example 3-25, 1-(benzo[d][1,3]dioxol-5-yl)-5-oxo-N-(5-(trifluoromethyl)thiazol-2-yl)pyrrolidine-3-carboxamide]",> 10 µM,,0.25 to 0.5 µM,>10,B (3-4 fold increase),> 10 µM
"O=C(Cc1cc2ccccc2o1)Nc1ncc(C(F)(F)F)s1 [Example 3-41, 2-(benzofuran-2-yl)-N-(5-(trifluoromethyl)thiazol-2-yl)acetamide]",> 10 µM,D (10 μM≤DC50<1.0 μM),1 to 10 µM,>2,C (2-3 fold increase),
"O=C(Cc1cccc2ncccc12)Nc1ncc(C(F)(F)F)s1 [Example 3-13, 2-(quinolin-5-yl)-N-(5-(trifluoromethyl)thiazol-2-yl)acetamide]",> 10 µM,,1 to 10 µM,>4,B (3-4 fold increase),> 10 µM
"Cc1cc(NC(=O)Cc2cn3cc(F)ccc3n2)n[nH]1 [Example 3-56, 2-(6-fluoroimidazo[1,2-a]pyridin-2-yl)-N-(5-methyl-1H-pyrazol-3-yl)acetamide]",> 10 µM,,0.25 to 0.5 µM,>10,C (2-3 fold increase),> 10 µM
"Cc1ccc2c(CC(=O)Nc3ncc(C(C)C)s3)coc2c1C [Example 3-2, 2-(6,7-dimethylbenzofuran-3-yl)-N-(5-isopropylthiazol-2-yl)acetamide]",0.5 to 1 µM,,≤ 0.25 µM,12.7,B (3-4 fold increase),≤ 0.1 µM
"O=C(Cc1cccc2cnccc12)Nc1ncc(C(F)(F)F)s1 [Example 3-30, 2-(isoquinolin-5-yl)-N-(5-(trifluoromethyl)thiazol-2-yl)acetamide]",> 10 µM,,> 10 µM,>1,C (2-3 fold increase),> 10 µM
"Cc1ccc2c(CC(=O)Nc3ccc(Cl)cn3)coc2c1C [Example 3-55, N-(5-chloropyridin-2-yl)-2-(6,7-dimethylbenzofuran-3-yl)acetamide]",1 to 10 µM,C (1.0 μM≤DC50<0.50 μM),0.25 to 0.5 µM,9.2,B (3-4 fold increase),
"O=C(Cc1cncc2ccccc12)Nc1ncc(C(F)(F)F)s1 [Example 3-34, 2-(isoquinolin-4-yl)-N-(5-(trifluoromethyl)thiazol-2-yl)acetamide]",> 10 µM,,1 to 10 µM,>3,C (2-3 fold increase),> 10 µM
"O=C(Cc1cn2cc(Cl)cc(Cl)c2n1)Nc1ncc(C(F)(F)F)s1 [Example 3-8, 2-(6,8-dichloroimidazo[1,2-a]pyridin-2-yl)-N-(5-(trifluoromethyl)thiazol-2-yl)acetamide]",≤ 0.25 µM,,≤ 0.25 µM,51.5,A (greater than 4-fold increase),≤ 0.1 µM
"Cc1ccc2c(ccn2CC(=O)Nc2ncc(C(F)(F)F)s2)c1 [Example 3-37, 2-(5-methyl-1H-indol-1-yl)-N-(5-(trifluoromethyl)thiazol-2-yl)acetamide]",> 10 µM,,1 to 10 µM,>4,C (2-3 fold increase),> 10 µM
"Cc1ccc2c(CC(=O)Nc3cc(Cl)[nH]n3)coc2c1C [Example 3-49, N-(5-chloro-1H-pyrazol-3-yl)-2-(6,7-dimethylbenzofuran-3-yl)acetamide]",1 to 10 µM,B (0.50 μM≤DC50<0.10 μM),≤ 0.25 µM,37.3,B (3-4 fold increase),
"O=C(Nc1ncc(C(F)(F)F)s1)C1CC(=O)N(c2ccc(Cl)cc2)C1 (stereo not shown) [Example 3-18, 1-(4-chlorophenyl)-5-oxo-N-(5-(trifluoromethyl)thiazol-2-yl)pyrrolidine-3-carboxamide]",> 10 µM,D (10 μM≤DC50<1.0 μM),≤ 0.25 µM,>10,C (2-3 fold increase),
"Cc1cccn2cc(CC(=O)Nc3ncc(C(F)(F)F)s3)nc12 [Example 3-7, 2-(8-methylimidazo[1,2-a]pyridin-2-yl)-N-(5-(trifluoromethyl)thiazol-2-yl)acetamide]",1 to 10 µM,,≤ 0.25 µM,42.4,B (3-4 fold increase),> 10 µM
"O=C(Nc1ncc(C(F)(F)F)s1)C1CC(=O)N(c2ccccc2Cl)C1 (stereo not shown) [Example 3-20, 1-(2-chlorophenyl)-5-oxo-N-(5-(trifluoromethyl)thiazol-2-yl)pyrrolidine-3-carboxamide]",> 10 µM,,0.25 to 0.5 µM,>10,C (2-3 fold increase),> 10 µM
